Data: patent publication US20230190616A1, “COMPOUNDS USEFUL FOR THE TREATMENT AND/OR CARE OF THE SKIN, HAIR, NAILS AND/OR MUCOUS MEMBRANES” (LUBRIZOL ADVANCED MATERIALS, INC., priority 2018, published 2023)

Columns and labels:
Type in all cases: cell-based
[1] = system: human neuroblastoma cell line (SH-SY5Y); assay: Inhibition of noradrenaline (NA) release from human neuroblastoma cells, ELISA
Excerpt: Inhibition of noradrenaline release from human neuroblastoma cells.
Release of neurotransmitters by exocytosis in neuromuscular junctions from peripheral neurons to skeletal muscle allows muscle contraction. Face muscles are subject to said contraction and facial muscle contraction is more frequent around eyes, mouth and forehead than elsewhere in the face. With age, continuous release of neurotransmitters into neuromuscular junctions and decrease of elasticity contribute to the increase of facial wrinkles and permanent expression lines. Compounds able to block or decrease exocytosis on neuromuscular junction sites are thus good candidates for the cosmetic treatment of unaesthetic wrinkles. In vitro induction of the neurotransmitter Noradrenaline (NA) release in a human neuroblastoma cell line (SH-SY5Y) is considered a direct and reliable method for exocytosis measurement. The aim of this study is to evaluate the efficacy of the peptides of the invention on the inhibition of neuronal exocytosis by means of measuring the levels of NA release in SH-SY5Y cells by Enzyme-linked Immunosorbent Assay (ELISA).
SH-SY5Y (ECACC) cells are seeded in 12-well plates at a density of 1×10^6 cells/well. After a 6-day culture, medium is removed from wells and cells are treated for 60 minutes with the peptides of the invention dissolved in Hank’s Balanced Salt Solution (HBSS, Life Technologies) at 1 and 2.5 mg/ml. Cells treated with HBSS alone are used as a basal control. To mobilize NA vesicles, supernatants are removed and 100 nM Tetradecanoylphorbol-13-acetate (TPA, Sigma) is dissolved in the presence of test items in HBSS or dissolved in HBSS alone in the case of the basal control. After this, solutions with TPA are removed and NA release is induced by the addition of 10 µM lonomycin (Epica) with 100 nM TPA dissolved in the presence of test items in HBSS or dissolved in HBSS alone in the case of the basal control. Afterwards, the medium in the wells, containing released NA, is collected and centrifuged. Supernatants obtained are used for quantification of NA by ELISA with noradrenalin ELISA kit (IBL International) following manufacturer’s instructions. In brief, direct sandwich ELISA is performed with a plate pre-coated with an anti-NA antibody. The color obtained after substrate addition is directly proportional to the amount of NA present in each condition tested. Absorbance is read in a microplate absorbance reader (Clariostar™, BMG) at 405 nm. The percentage of NA release for each condition is calculated respect to basal control.

[2] = system: collagen type I in primary human dermal fibroblasts (HDFn); assay: Type I collagen synthesis on human dermal fibroblasts by ELISA; details: 0.5 µg/ml; for % Collagen induction: 48 hours
Excerpt: In vitro study of type I collagen synthesis on human dermal fibroblasts by Enzyme-Linked Immunosorbent Assay.
Collagen type I is the principal collagen of skin. This molecule, which is mainly produced by fibroblasts, is responsible for the strength and resiliency of this tissue. For this reason, in vitro quantification of collagen induction by cosmetic products on human dermal fibroblasts provides information about their potential anti-aging effects on the skin. Collagen induction by the peptides of the invention is evaluated with an Enzyme-Linked Immunosorbent Assay (ELISA). The aim of this study is to investigate the ability of a product to induce collagen type I synthesis in primary human dermal fibroblasts isolated from neonatal skin (HDFn).
HDFn (Cascade) are seeded at a density of 5×10^4 in 48-well plates. After 24-hour incubation, fresh medium with scalar dilutions of the test items at 0.5 µg/ml are added. Non-treated cells are used as basal control. The cells are treated for 48 hours. Then, the medium of the wells is collected and transferred into a 96-well plate. A standard calibration curve prepared with calf skin type I collagen (Sigma) is transferred into the plate as well. The plate is left overnight in order to coat type I collagen into its surface. After that, collagen I is detected with an anti-collagen type I antibody (Sigma). The primary antibody is then recognized by a secondary antibody IgG-HRP (molecular probes). 3,3,5,5-tetramethylbenzidine liquid substrate (TMB, Sigma) is added to measure the amount of secondary antibody attached. The color produced by this reaction is measured in a microtiter plate reader (Clariostar™, BMG) and type I collagen concentration is determined using a linear regression of the standard curve.

[3] = system: Musclebind like protein 1 (MBNL1) in human skeletal muscle cells (hSkMc); assay: Quantification of Musclebind like protein 1 in human skeletal muscle cells by TR-FRET; details: for % MBNL1 vs basal level / MBNL1 levels compared to the basal control and to Argireline (in words): 0.5 mg/ml; for % MBNL1 vs basal level: 48 hours
Protocol: In vitro quantification of Musclebind like protein 1 in human skeletal muscle cells by Time resolved fluorescence resonance energy transfer.
MBNL1 induction by the peptides of the invention is evaluated by a Time resolved fluorescence resonance energy transfer (TR-FRET) assay. The aim of this study is to investigate the capacity of peptide candidates to increase MBNL-1 in human skeletal muscle cells (hSkMc).
hSkMc (Innoprot) are seeded in 12-well plates at a density of 1.5×10^4 cells/well in Skeletal Muscle Cell Growth Medium (Promocell). After 72 hours incubation, medium is removed and replaced with Skeletal Muscle Cell Differentiation Medium (Promocell). 48 hours after beginning cell differentiation, fresh differentiation medium with 0.5 mg/ml of test items is added. Treatment is continued for 48 hours and non-treated cells are used as basal control. After 48 hours of treatment, cell medium is removed and cell lysis buffer is added to wells. Immediately, plates are kept at -80° C. in order to improve protein extraction during the defrosting process. After 72 hours, cells are lysed by shaking the plates in an orbital rotor at room temperature for 45 minutes. Next, cell lysates are collected and assayed to quantify the level of MBNL-1 protein and total protein concentration.
MBNL-1 protein levels measurement is performed with Human MBNL1 Assay Kit (Cisbio) according to the manufacturer’s protocol. Briefly, the kit is used to perform a TR-FRET for MBNL1 quantification. The protein is detected with the antibodies provided in the kit and quantified by a fluorescence measurement. The quantification is carried out by using a microplate reader (ClarioStar™™™, BMG) set to 665 nm and 620 nm.
Total protein concentration of cell lysate is determined by using Pierce BCA Protein Assay Kit (Thermo Scientific) according to manufacturer’s protocol. In brief, after adding Working Reagent to the samples and the standards, the samples are incubated. Afterwards, color change is measured with an absorbance microplate reader (Clariostar™, BMG) at 562 nm. The total protein amount is used to normalize the level of MBNL1 protein concentration obtained by the TR-FRET test in the samples.

[4] = system: Musclebind like protein 1 (MBNL1) in human skeletal muscle cells (hSkMc); assay: as above; details: 1 mg/ml; 48 hours
[5] = hSkMc, normalized to total protein
[6] = 1 mg/ml, SH-SY5Y, respect to basal control, mean of 3 assays
[7] = 2.5 mg/ml, SH-SY5Y, respect to basal control, mean of 3 assays
[8] = HDFn, versus non-treated cells, mean of 5 assays

Substance | % MBNL1 vs basal level [3, 5] [%] | MBNL1 levels compared to the basal control and to Argireline (in words) ([3]; hSkMc) | further results
ARGIRELINE [Ac—Glu—Glu—Met—Gln—Arg—Arg, reference compound] | – | – | % Released NA ([1]; 1 mg/ml): 79.6%; % Released NA ([1]; 2.5 mg/ml): 63.5%; % Collagen induction [2]: 109.8%; Effect on MBNL1 (in words) [3]: no effect; % MBNL1 vs basal level [3]: 96.6%; % MBNL1 vs basal level [4]: 86.9%
Ac-L-Ala-L-Arg-L-Arg-L-Gln-D-Met-L-Glu-L-Glu-L-Ala-NH2 [PEP-42] | 144.4 | increase MBNL1 levels | –
Ac-L-Arg-L-Arg-D-Gln-D-Met-L-Glu-L-Glu-NH2 [PEP-24] | 120.9 | increase MBNL1 levels | % Released NA [1, 6]: 65.8%; % Released NA [1, 7]: 52.3%; % Collagen induction [2, 8]: 104.7%
Ac-L-Arg-L-Arg-L-Asp-D-Met-L-Glu-L-Glu-NH2 [PEP-41] | 151.3 | increase MBNL1 levels | –
Ac-L-Arg-L-Arg-L-Gln-D-Leu-L-Glu-L-Glu-NH2 [PEP-37] | 140.3 | increase MBNL1 levels | –
Ac-L-Arg-L-Arg-L-Gln-D-Met-L-Asp-L-Glu-NH2 [PEP-30] | 160.0 | increase MBNL1 levels | –
Ac-L-Arg-L-Arg-L-Gln-D-Met-L-Glu-L-Gln-NH2 [PEP-31] | 161.3 | increase MBNL1 levels | –
Ac-L-Arg-L-Arg-L-Gln-D-Met-L-Glu-L-Glu-OH [PEP-26] | 109.6 | increase MBNL1 levels | –
Ac-L-Arg-L-Arg-L-Gln-D-Met-L-Glu-NH2 [PEP-44] | 137.8 | increase MBNL1 levels | –
Ac-L-Arg-L-Arg-L-Gln-L-Met-L-Glu-L-Glu-NH2 [PEP-21] | 91.9 | – | % Released NA [1, 6]: 78.9%; % Released NA [1, 7]: 43.8%; % Collagen induction [2, 8]: 119.3%; Efficacy in increasing collagen type I compared with Argireline (in words) ([2]; HDFn): even higher
Ac-L-Arg-L-Gln-D-Met-L-Glu-L-Glu-NH2 [PEP-43] | 112.4 | increase MBNL1 levels | –
Ac-L-Arg-L-Lys-L-Gln-D-Met-L-Glu-L-Glu-NH2 [PEP-35] | 144.3 | increase MBNL1 levels | –
Ac-L-Lys-L-Arg-L-Gln-D-Met-L-Glu-L-Glu-NH2 [PEP-36] | 117.6 | increase MBNL1 levels | –
H-L-Arg-L-Arg-L-Gln-D-Met-L-Glu-L-Glu-NH2 [PEP-27] | 144.2 | increase MBNL1 levels | –
